# Measurements taken from the kinase profiling compilation of Christmann-Franck et al. (2016).
# What was measured:
# Test in all cases: radiometric filter-binding kinase assay, Kinase HotSpot
# Conditions in all cases: compound 0.5 µM; ATP 10 µM
# MYLK (human) = MYLK (human) (UniProt Q15746)
# ROCK2 (human) = ROCK2 (human) (UniProt O75116)
# NTRK3 (human) = NTRK3 (human) (UniProt Q16288)
# MAPK9 (human) = MAPK9 (human) (UniProt P45984)
# BRSK2 (human) = BRSK2 (human) (UniProt Q8IWQ3)
# HIPK3 (human) = HIPK3 (human) (UniProt Q9H422)
# CSNK2A2 (human) = CSNK2A2 (human) (UniProt P19784)
# GRK7 (human) = GRK7 (human) (UniProt Q8WTQ7)
# MERTK (human) = MERTK (human) (UniProt Q12866)
# PIM1 (human) = PIM1 (human) (UniProt P11309)
# KIT (human) = KIT (human) (UniProt P10721)
# ACVRL1 (human) = ACVRL1 (human) (UniProt P37023)
# ABL2 (human) = ABL2 (human) (UniProt P42684)
# NUAK1 (human) = NUAK1 (human) (UniProt O60285)
# PRKACA (human) = PRKACA (human) (UniProt P17612)
# STK24 (human) = STK24 (human) (UniProt Q9Y6E0)
# MARK2 (human) = MARK2 (human) (UniProt Q7KZI7)
# FLT1 (human) = FLT1 (human) (UniProt P17948)
# CLK4 (human) = CLK4 (human) (UniProt Q9HAZ1)
# CDK1 CCNA2 (human) = CDK1 CCNA2 (human) (UniProt P06493+P20248)
# STK4 (human) = STK4 (human) (UniProt Q13043)
# NLK (human) = NLK (human) (UniProt Q9UBE8)
# KDR (human) = KDR (human) (UniProt P35968)
# WNK3 (human) = WNK3 (human) (UniProt Q9BYP7)
# CDK9 CCNT1 (human) = CDK9 CCNT1 (human) (UniProt P50750+O60563)
# PRKCB2 (human) = PRKCB2 (human) (UniProt P05771)
# TNK2 (human) = TNK2 (human) (UniProt Q07912)
# AKT1 (human) = AKT1 (human) (UniProt P31749)
# SRPK3 (human) = SRPK3 (human) (UniProt Q9UPE1)
# MAPKAPK5 (human) = MAPKAPK5 (human) (UniProt Q8IW41)
# EPHA2 (human) = EPHA2 (human) (UniProt P29317)
# NEK2 (human) = NEK2 (human) (UniProt P51955)
# FLT3 (human) = FLT3 (human) (UniProt P36888)
# EPHB1 (human) = EPHB1 (human) (UniProt P54762)
# CDK2 CCNE1 (human) = CDK2 CCNE1 (human) (UniProt P24941+P24864)
# CSNK1E (human) = CSNK1E (human) (UniProt P49674)
# AURKB (human) = AURKB (human) (UniProt Q96GD4)
# CSNK1G3 (human) = CSNK1G3 (human) (UniProt Q9Y6M4)
# HIPK4 (human) = HIPK4 (human) (UniProt Q8NE63)
# PRKCG (human) = PRKCG (human) (UniProt P05129)
# CSNK1A1 (human) = CSNK1A1 (human) (UniProt P48729)
# GRK5 (human) = GRK5 (human) (UniProt P34947)
# Sequence of MAPK9 (human) (P45984 whole entry, looked up): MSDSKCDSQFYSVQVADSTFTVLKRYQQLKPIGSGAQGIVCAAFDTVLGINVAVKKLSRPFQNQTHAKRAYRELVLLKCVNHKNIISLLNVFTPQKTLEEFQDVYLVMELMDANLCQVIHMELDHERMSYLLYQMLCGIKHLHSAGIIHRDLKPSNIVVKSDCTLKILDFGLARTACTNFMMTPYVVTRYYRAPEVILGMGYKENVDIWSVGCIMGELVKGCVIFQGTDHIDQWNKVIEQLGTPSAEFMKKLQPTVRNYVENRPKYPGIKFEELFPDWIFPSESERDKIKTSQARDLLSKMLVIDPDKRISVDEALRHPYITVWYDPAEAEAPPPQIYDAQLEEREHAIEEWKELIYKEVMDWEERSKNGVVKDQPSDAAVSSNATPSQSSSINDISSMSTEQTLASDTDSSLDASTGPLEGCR
# Sequence of ROCK2 (human) (O75116 whole entry, looked up): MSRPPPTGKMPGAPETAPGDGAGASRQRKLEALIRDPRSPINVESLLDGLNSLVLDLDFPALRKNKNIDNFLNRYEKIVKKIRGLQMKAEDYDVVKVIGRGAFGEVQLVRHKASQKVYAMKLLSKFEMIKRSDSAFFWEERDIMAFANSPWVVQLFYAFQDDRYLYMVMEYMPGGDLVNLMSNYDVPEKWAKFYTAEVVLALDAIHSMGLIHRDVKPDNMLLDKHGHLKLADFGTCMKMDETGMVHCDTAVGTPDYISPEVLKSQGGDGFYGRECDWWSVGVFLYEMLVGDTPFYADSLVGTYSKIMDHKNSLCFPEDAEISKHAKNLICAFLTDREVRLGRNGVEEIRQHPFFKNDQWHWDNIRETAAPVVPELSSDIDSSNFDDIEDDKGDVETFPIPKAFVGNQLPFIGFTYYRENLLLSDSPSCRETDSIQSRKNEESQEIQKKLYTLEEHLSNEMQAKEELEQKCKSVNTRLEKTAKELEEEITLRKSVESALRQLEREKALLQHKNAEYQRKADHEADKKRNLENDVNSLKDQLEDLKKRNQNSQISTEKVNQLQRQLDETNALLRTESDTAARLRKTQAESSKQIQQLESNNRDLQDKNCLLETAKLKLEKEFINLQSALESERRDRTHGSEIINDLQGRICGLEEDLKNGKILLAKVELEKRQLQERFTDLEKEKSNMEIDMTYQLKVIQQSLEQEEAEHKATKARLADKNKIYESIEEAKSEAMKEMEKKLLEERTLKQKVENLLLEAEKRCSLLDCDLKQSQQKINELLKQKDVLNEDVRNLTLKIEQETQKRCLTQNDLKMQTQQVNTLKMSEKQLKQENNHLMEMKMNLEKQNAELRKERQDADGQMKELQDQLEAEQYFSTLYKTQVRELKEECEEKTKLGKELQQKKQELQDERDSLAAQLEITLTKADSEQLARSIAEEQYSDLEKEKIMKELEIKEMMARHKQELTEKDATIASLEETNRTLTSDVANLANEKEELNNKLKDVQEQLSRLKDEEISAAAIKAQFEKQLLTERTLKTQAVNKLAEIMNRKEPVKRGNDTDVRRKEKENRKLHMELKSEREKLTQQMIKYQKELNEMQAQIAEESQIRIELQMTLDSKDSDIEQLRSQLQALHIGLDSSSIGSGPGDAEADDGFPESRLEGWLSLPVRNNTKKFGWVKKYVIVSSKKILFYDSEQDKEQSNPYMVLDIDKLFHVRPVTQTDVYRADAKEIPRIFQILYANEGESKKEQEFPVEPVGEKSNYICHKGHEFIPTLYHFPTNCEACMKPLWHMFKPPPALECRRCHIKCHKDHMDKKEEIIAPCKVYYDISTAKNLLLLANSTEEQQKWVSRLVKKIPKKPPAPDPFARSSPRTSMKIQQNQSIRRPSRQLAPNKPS
# Sequence of ABL2 (human) (P42684 whole entry, looked up): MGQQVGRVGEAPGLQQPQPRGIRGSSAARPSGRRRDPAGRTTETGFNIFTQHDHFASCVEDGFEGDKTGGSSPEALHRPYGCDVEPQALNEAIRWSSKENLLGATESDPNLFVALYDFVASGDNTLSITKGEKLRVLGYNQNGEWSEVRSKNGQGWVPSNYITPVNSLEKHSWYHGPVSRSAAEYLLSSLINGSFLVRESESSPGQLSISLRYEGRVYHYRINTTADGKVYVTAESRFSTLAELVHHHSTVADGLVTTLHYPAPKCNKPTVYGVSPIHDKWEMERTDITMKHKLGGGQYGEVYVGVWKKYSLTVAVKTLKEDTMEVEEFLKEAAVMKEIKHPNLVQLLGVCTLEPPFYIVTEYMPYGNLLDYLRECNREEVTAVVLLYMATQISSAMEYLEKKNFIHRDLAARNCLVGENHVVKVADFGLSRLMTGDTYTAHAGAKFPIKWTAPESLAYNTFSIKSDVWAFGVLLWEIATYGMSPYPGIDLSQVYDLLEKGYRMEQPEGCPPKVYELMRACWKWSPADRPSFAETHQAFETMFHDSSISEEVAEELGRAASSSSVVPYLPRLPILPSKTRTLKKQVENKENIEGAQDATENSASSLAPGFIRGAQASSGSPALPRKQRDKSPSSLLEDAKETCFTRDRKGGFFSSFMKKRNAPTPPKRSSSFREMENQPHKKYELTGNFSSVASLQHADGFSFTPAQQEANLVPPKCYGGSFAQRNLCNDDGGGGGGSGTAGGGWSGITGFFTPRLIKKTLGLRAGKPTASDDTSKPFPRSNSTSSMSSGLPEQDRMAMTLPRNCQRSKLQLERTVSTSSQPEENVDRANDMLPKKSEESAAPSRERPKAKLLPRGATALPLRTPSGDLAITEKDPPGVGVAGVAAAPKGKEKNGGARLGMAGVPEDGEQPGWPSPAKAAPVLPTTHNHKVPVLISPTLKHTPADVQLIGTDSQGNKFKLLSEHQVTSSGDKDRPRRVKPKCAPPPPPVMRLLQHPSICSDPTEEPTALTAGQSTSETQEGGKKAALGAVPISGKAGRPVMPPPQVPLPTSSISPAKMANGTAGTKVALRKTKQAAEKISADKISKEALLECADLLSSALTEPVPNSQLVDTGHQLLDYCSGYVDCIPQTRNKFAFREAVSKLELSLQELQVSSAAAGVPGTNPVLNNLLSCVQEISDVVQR
# Sequence of CSNK1A1 (human) (P48729 whole entry, looked up): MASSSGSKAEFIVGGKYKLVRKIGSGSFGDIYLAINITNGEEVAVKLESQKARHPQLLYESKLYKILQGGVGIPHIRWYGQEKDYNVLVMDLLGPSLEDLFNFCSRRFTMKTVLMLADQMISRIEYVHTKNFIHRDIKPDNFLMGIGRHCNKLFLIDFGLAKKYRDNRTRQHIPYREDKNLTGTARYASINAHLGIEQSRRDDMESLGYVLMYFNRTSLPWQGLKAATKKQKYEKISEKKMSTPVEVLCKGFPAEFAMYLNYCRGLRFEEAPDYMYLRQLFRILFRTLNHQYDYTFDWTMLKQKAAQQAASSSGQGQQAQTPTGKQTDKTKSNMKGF
# Sequence of MERTK (human) (Q12866 whole entry, looked up): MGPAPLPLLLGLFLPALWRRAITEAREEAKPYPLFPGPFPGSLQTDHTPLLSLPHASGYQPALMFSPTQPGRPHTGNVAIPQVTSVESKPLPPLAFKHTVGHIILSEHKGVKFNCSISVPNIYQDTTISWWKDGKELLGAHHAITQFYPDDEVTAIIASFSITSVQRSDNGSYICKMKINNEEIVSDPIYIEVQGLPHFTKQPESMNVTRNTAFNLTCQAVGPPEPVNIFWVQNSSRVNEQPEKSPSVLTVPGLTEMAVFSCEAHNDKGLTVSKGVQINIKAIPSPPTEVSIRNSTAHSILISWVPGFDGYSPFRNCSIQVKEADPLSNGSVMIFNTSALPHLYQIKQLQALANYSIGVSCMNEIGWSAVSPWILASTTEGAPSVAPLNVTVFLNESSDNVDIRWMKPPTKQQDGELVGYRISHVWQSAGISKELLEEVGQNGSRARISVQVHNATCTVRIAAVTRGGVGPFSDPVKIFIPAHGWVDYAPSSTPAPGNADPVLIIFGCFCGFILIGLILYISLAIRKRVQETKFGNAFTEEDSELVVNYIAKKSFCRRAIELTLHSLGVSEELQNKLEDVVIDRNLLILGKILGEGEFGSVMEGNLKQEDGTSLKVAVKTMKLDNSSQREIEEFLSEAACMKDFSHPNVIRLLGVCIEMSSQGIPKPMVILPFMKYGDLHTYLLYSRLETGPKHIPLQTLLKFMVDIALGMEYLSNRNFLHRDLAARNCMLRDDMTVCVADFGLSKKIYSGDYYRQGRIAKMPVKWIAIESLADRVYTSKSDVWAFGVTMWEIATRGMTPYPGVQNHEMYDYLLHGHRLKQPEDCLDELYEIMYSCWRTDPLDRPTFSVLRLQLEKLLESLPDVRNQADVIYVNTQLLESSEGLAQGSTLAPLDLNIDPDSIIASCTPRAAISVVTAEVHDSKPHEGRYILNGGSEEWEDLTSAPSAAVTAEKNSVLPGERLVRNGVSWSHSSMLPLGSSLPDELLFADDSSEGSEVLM
# Sequence of AURKB (human) (Q96GD4 whole entry, looked up): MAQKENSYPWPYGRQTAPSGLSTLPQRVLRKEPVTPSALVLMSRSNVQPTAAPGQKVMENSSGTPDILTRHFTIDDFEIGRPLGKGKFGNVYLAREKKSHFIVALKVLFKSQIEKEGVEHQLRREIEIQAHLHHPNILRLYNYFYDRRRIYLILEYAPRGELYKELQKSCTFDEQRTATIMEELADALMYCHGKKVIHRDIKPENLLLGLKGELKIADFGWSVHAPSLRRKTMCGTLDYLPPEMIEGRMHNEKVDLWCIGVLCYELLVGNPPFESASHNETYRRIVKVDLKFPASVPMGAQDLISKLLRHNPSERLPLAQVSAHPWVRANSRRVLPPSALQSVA
# Sequence of PIM1 (human) (P11309 whole entry, looked up): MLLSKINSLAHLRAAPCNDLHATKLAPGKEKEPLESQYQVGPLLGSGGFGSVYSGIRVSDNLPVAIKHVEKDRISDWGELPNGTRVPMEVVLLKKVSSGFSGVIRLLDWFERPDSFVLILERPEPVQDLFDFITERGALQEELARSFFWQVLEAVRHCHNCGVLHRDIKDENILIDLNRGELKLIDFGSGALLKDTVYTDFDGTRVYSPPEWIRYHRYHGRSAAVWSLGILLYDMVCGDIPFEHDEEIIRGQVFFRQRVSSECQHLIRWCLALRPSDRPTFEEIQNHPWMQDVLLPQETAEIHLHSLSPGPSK
smiles,measurement,setting,value
Oc1cccc(-c2nc(N3CCOCC3)c3oc4ncccc4c3n2)c1,residual activity,MYLK (human),77.1%
same,residual activity,ROCK2 (human),94.5%
same,residual activity,NTRK3 (human),91.1%
same,residual activity,MAPK9 (human),89.4%
same,residual activity,BRSK2 (human),97.1%
same,residual activity,HIPK3 (human),93.8%
same,residual activity,CSNK2A2 (human),56.2%
same,residual activity,GRK7 (human),100%
same,residual activity,MERTK (human),87.8%
same,residual activity,PIM1 (human),91.2%
same,residual activity,KIT (human),88.9%
same,residual activity,ACVRL1 (human),105%
same,residual activity,ABL2 (human),94.9%
same,residual activity,NUAK1 (human),86.6%
same,residual activity,PRKACA (human),99.5%
same,residual activity,STK24 (human),100%
same,residual activity,MARK2 (human),92.9%
same,residual activity,FLT1 (human),83.6%
same,residual activity,CLK4 (human),81.5%
same,residual activity,CDK1 CCNA2 (human),84.4%
same,residual activity,STK4 (human),93.3%
same,residual activity,NLK (human),97.4%
same,residual activity,KDR (human),85.9%
same,residual activity,WNK3 (human),93.9%
same,residual activity,CDK9 CCNT1 (human),105%
same,residual activity,PRKCB2 (human),102%
same,residual activity,TNK2 (human),89.6%
same,residual activity,AKT1 (human),95.3%
same,residual activity,SRPK3 (human),95%
same,residual activity,MAPKAPK5 (human),85.7%
same,residual activity,EPHA2 (human),99.9%
same,residual activity,NEK2 (human),88.6%
same,residual activity,FLT3 (human),87.1%
same,residual activity,EPHB1 (human),89.6%
same,residual activity,CDK2 CCNE1 (human),85.5%
same,residual activity,CSNK1E (human),87.1%
same,residual activity,AURKB (human),99.4%
same,residual activity,CSNK1G3 (human),99.9%
same,residual activity,HIPK4 (human),107%
same,residual activity,PRKCG (human),102%
same,residual activity,CSNK1A1 (human),87.9%
CC(C)N(CCC(=O)c1ccc2ccccc2c1)Cc1ccccc1,residual activity,MYLK (human),95.6%
same,residual activity,GRK5 (human),93.7%
same,residual activity,ROCK2 (human),92.8%
same,residual activity,NTRK3 (human),103%
same,residual activity,MAPK9 (human),100%
same,residual activity,BRSK2 (human),103%
same,residual activity,HIPK3 (human),115%
same,residual activity,CSNK2A2 (human),95.4%
same,residual activity,GRK7 (human),121%
same,residual activity,MERTK (human),106%
same,residual activity,PIM1 (human),100%
same,residual activity,KIT (human),86.5%
same,residual activity,ACVRL1 (human),107%
same,residual activity,ABL2 (human),100%
same,residual activity,NUAK1 (human),97.1%
same,residual activity,STK24 (human),96.6%
same,residual activity,MARK2 (human),97.9%
same,residual activity,FLT1 (human),86%
same,residual activity,CLK4 (human),91.7%
same,residual activity,CDK1 CCNA2 (human),92.9%
same,residual activity,STK4 (human),92.5%
same,residual activity,NLK (human),94.8%
same,residual activity,KDR (human),98.9%
same,residual activity,WNK3 (human),97%
same,residual activity,CDK9 CCNT1 (human),96.4%
same,residual activity,PRKCB2 (human),101%
same,residual activity,TNK2 (human),92.4%
same,residual activity,AKT1 (human),100%
same,residual activity,SRPK3 (human),96.5%
same,residual activity,MAPKAPK5 (human),96.6%
same,residual activity,NEK2 (human),86.9%
same,residual activity,FLT3 (human),97.5%
same,residual activity,EPHB1 (human),96.8%
same,residual activity,CDK2 CCNE1 (human),89.2%
same,residual activity,CSNK1E (human),96.1%
same,residual activity,AURKB (human),101%
same,residual activity,CSNK1G3 (human),99%
same,residual activity,HIPK4 (human),107%
same,residual activity,PRKCG (human),92.7%
same,residual activity,CSNK1A1 (human),88.4%
Cc1ccc(NC2=CC(=O)c3sc(C)nc3C2=O)cc1,residual activity,MYLK (human),90.1%
same,residual activity,GRK5 (human),106%
same,residual activity,ROCK2 (human),85.1%
same,residual activity,NTRK3 (human),94%
same,residual activity,MAPK9 (human),96.5%
same,residual activity,BRSK2 (human),93.1%
same,residual activity,HIPK3 (human),101%
same,residual activity,CSNK2A2 (human),87.8%
same,residual activity,GRK7 (human),101%
same,residual activity,MERTK (human),80.5%
same,residual activity,PIM1 (human),96.8%
same,residual activity,KIT (human),74.7%
same,residual activity,ACVRL1 (human),101%
same,residual activity,ABL2 (human),98.3%
same,residual activity,NUAK1 (human),93%
same,residual activity,PRKACA (human),95.9%
same,residual activity,STK24 (human),82.8%
same,residual activity,MARK2 (human),91.1%
same,residual activity,FLT1 (human),89.8%
same,residual activity,CLK4 (human),99.1%
same,residual activity,CDK1 CCNA2 (human),75.9%
same,residual activity,STK4 (human),93.5%
same,residual activity,NLK (human),107%
same,residual activity,KDR (human),101%
same,residual activity,WNK3 (human),102%
same,residual activity,CDK9 CCNT1 (human),97.6%
same,residual activity,PRKCB2 (human),93.8%
same,residual activity,TNK2 (human),94.3%
same,residual activity,AKT1 (human),83.3%
same,residual activity,SRPK3 (human),98.2%
same,residual activity,MAPKAPK5 (human),108%
same,residual activity,EPHA2 (human),102%
same,residual activity,NEK2 (human),96.4%
same,residual activity,FLT3 (human),72.5%
same,residual activity,CDK2 CCNE1 (human),72.9%
same,residual activity,CSNK1E (human),93.4%
same,residual activity,AURKB (human),89.8%
same,residual activity,CSNK1G3 (human),90.1%
same,residual activity,HIPK4 (human),93.7%
same,residual activity,PRKCG (human),77%
same,residual activity,CSNK1A1 (human),106%
